Test results as given in patent US11130960B2, “Methods for conferring or enhancing herbicide resistance on plants and/or alga with protoporphyrinogen oxidase variants” (FARM HANNONG CO., LTD., priority 2014, dated 2021).

Each compound was assayed on CyPPO2 (assay: Growth inhibition of transformed PPO-deficient E. coli BT3(ΔPPO) on LB agar medium). Conditions: 37° C., 16~20 hours.
Format: cell-based, Oscillatoria nigro-viridis PCC 7112
From the text: To test herbicide resistance of CyPPO2, CyPPO4, CyPPO8 and CyPPO12 isolated in Example 1, PPO-deficient BT3 E. coli [hereinafter, referred to as BT3(ΔPPO)] was transformed with CyPPO2, CyPPO4, CyPPO8 or CyPPO12 gene, respectively and then cultured in the presence of herbicides to examine growth inhibition of the transformed E. coli. As a negative control, Arabidopsis thaliana-derived wild-type PPO (wild-type AtPPO1) was used, and wild-type AtPPO1 has sensitivity to PPO-based herbicides and its sequence information is available in GeneBank accession no. AX084732 (a nucleotide sequence of the gene is represented by SEQ ID NO: 10, and an amino acid sequence thereof is represented by SEQ ID NO: 9). As a positive control, Mutant AtPPO1 was used, in which amino acid replacements of Y426M (replacement of tyrosine by methionine at position 426) and S305L (replacement of serine by leucine at position 305) occur in the amino acid sequence of the wild-type AtPPO1 (an amino acid sequence is represented by SEQ ID NO: 11) (Li X, Volrath S L., N D B. G., Chilcott C E, Johnson M A, Ward E R, Law M D (2003) Development of protoporphyrinogen oxidase as an efficient selection marker for Agrobacterium tumefaciens-mediated transformation of maize. Plant physiology 133:736-747).
BT3(ΔPPO) strain was provided by Hokkaido University (Japan) and it is an E. coli strain which is deficient in hemG-type PPO and has Kanamycin resistance (Watanabe et al., (2001) Dual targeting of spinach protoporphyrinogen oxidase II to mitochondria and chloroplasts by alternative use of two in-frame […] codons. JBC 2047420481).
HVE-50 autoclave from Hirayama, HS2100A electronic scale from Hansung Instrument, CB-30V clean bench from Jeio Tech, JSI-200CL incubator from JSR, 1210 type UV-visible spectrophotometer from Thermo Fisher Scientific, MQ-200 photometer from Apogee, and Bio-Rad MyCycler as PCR machine were used. The autoclave was used under conditions of 121° C. and 15 minutes, and the incubator was used at 37° C. with lighting of 160˜200 μmol m^−2 s^−1 for a culture time of 14˜20 hours. LB medium (10 g/L of Bacto-Tryptone, 5 g/L of Yeast extract, 10 g/L of sodium chloride, 15 g/L of Bacto agar) and an antibiotic Chloramphenicol (Duchefa) were used.
To clone each of the CyPPO2, CyPPO4, CyPPO8 and CyPPO12 genes isolated and amplified in Example 1 into pACBB (its structure is shown in FIG. 2), 10 μl of a solution containing 4 μl of each PPO gene, […], 1 μl of 10× buffer A, 1 μl of 10× buffer B, 1 μl of ligase (RBC, 3 unit/μl) was prepared and allowed to react at 22° C. for 30 minutes. The reaction solution was added to 100 μl of DH5 alpha competent cells, and allowed to react on ice for 20 minutes and then left at 42° C. for 40 seconds. Thereafter, the cells were left on ice for 2 minutes, and then 1 ml of LB broth was added thereto, followed by incubation with shaking at 37° C. for 1 hour. The strains having each gene insert in the culture medium were harvested, and then cultured on LB agar medium containing chloramphenicol.
For seed culture of E. coli transformed with respective genes, single colonies thereof were cultured in 3 ml of LB broth containing chloramphenicol overnight, and each 100 μl thereof was sub-cultured in 3 ml of fresh LB broth until absorbance (OD600) reached 0.5˜1. They were diluted with LB broth to absorbance (OD600) of 0.5. 10-fold dilution of this diluted solution was performed with LB broth five times. Next, 10 μl of the diluted solution of the transformed E. coli culture was dropped on LB agar medium (petri dish) containing chloramphenicol and a variety of herbicide stocks at different concentrations (0˜400 μM). The LB agar plates were incubated at 37° C. At 16˜20 hours after culture, growth inhibition was examined with the naked eye. Further, growth inhibition of the strains cultured in a medium containing Tiafenacil was examined under light (lighting of 169 μmol m^−2s^−1) and dark conditions.

Structure (SMILES)	concentration at which growth inhibition was hardly observed
CC(C)Oc1cc(-n2nc(C(C)(C)C)oc2=O)c(Cl)cc1Cl [Oxadiazon]	400 µM
Cc1nn(-c2cc(NS(C)(=O)=O)c(Cl)cc2Cl)c(=O)n1C(F)F [Sulfentrazone]	400 µM
CCOc1cc(Oc2ccc(C(F)(F)F)cc2Cl)ccc1[N+](=O)[O-] [Oxyfluorfen]	400 µM
C#CCN1C(=O)COc2cc(F)c(N3C(=O)C4=C(CCCC4)C3=O)cc21 [Flumioxazin]	25 µM
O=C(O)c1cc(Oc2ccc(C(F)(F)F)cc2Cl)ccc1[N+](=O)[O-] [Acifluorfen]	400 µM
COC(=O)CSc1cc(/N=c2\sc(=O)n3n2CCCC3)c(F)cc1Cl [Fluthiacet-methyl]	400 µM
CC(C)N(C)S(=O)(=O)NC(=O)c1cc(-n2c(=O)cc(C(F)(F)F)n(C)c2=O)c(F)cc1Cl [Saflufenacil]	25 µM
CC(C)=C1OC(=O)N(c2cc(OC3CCCC3)c(Cl)cc2F)C1=O [Pentoxazone]	400 µM
C=CCOC(=O)C(C)(C)OC(=O)c1cc(-n2c(=O)cc(C(F)(F)F)n(C)c2=O)ccc1Cl [Butafenacil]	25 µM
CS(=O)(=O)NC(=O)c1cc(Oc2ccc(C(F)(F)F)cc2Cl)ccc1[N+](=O)[O-] [Fomesafen]	400 µM
COC(=O)CCNC(=O)C(C)Sc1cc(-n2c(=O)cc(C(F)(F)F)n(C)c2=O)c(F)cc1Cl (stereo not shown) [Tiafenacil]	25 µM
CCOC(=O)COc1cc(-c2nn(C)c(OC(F)F)c2Cl)c(F)cc1Cl [Pyraflufen-ethyl]	400 µM
C#CCN(C)c1c(C#N)cnn1-c1nn2c(c1Cl)CCCC2 [Pyraclonil]	400 µM
